According to US12447153B2, “HER2 mutation inhibitors” (Array BioPharma Inc., priority 2021, dated 2025):

Columns and labels:
ErbB2 WT = ErbB2 WT (Homo sapiens (Human), UniProt P04626); test: ErbB Enzyme Assay (HTRF KinEASE-TK), Assay 2; assay type: biochemical
EGFR = EGFR (Homo sapiens (Human), UniProt P00533); test: ErbB Enzyme Assay (HTRF KinEASE-TK), Assay 3; assay type: biochemical
[1] = target: ErbB2 with Exon 20 YVMA insertion (HER2-YVMA) (Homo sapiens (Human), UniProt P04626, INS775YVMA); test: Cellular Phosphorylation Assay, Assay 4 (constitutive ErbB2 phosphorylation, NIH 3T3 cells); assay type: cell-based
EGFR wild type (EGFR WT) = EGFR wild type (EGFR WT) (Homo sapiens (Human), UniProt P00533); test: Cellular Phosphorylation Assay, Assay 5 (EGF-stimulated EGFR phosphorylation, NIH 3T3 cells); assay type: cell-based
[2] = EGF-stimulated EGFR WT phosphorylation
[3] = cellular ErbB2 YVMA phosphorylation
[4] = cellular EGFR WT phosphorylation, EGF-stimulated

Sequence of ErbB2 WT (P04626 23-1255): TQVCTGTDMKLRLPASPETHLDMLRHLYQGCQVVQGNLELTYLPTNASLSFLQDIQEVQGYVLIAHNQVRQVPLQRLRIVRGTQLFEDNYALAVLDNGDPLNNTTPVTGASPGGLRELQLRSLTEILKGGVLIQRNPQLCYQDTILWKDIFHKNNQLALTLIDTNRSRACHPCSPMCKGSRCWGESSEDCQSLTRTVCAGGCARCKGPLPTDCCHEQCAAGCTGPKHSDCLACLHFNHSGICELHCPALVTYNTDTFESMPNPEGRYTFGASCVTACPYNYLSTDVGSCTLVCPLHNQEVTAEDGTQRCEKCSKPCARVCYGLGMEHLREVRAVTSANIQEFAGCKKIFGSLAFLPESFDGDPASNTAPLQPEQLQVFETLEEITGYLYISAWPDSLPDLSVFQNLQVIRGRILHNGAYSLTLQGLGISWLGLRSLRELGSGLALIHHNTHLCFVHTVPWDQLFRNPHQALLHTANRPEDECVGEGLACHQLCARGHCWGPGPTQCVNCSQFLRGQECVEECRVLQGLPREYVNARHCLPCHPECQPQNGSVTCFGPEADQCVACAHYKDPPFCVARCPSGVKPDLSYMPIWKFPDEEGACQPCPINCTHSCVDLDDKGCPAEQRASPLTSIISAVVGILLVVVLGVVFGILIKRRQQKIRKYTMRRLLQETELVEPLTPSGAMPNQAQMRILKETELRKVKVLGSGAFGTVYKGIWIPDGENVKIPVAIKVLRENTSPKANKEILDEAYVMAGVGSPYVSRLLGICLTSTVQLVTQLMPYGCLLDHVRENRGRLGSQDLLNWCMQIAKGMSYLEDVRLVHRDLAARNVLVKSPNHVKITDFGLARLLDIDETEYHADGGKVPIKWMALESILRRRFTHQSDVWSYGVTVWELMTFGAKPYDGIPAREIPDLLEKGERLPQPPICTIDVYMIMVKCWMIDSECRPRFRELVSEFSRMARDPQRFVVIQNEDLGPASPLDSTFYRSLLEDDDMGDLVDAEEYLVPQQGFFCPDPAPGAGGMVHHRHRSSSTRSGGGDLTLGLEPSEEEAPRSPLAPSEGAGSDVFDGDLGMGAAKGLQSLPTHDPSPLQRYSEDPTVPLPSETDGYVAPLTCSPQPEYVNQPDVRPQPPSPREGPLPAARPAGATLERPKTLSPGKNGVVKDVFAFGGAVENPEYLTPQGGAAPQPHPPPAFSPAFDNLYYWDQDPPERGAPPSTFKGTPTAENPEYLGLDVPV
Sequence of EGFR (P00533 25-1210): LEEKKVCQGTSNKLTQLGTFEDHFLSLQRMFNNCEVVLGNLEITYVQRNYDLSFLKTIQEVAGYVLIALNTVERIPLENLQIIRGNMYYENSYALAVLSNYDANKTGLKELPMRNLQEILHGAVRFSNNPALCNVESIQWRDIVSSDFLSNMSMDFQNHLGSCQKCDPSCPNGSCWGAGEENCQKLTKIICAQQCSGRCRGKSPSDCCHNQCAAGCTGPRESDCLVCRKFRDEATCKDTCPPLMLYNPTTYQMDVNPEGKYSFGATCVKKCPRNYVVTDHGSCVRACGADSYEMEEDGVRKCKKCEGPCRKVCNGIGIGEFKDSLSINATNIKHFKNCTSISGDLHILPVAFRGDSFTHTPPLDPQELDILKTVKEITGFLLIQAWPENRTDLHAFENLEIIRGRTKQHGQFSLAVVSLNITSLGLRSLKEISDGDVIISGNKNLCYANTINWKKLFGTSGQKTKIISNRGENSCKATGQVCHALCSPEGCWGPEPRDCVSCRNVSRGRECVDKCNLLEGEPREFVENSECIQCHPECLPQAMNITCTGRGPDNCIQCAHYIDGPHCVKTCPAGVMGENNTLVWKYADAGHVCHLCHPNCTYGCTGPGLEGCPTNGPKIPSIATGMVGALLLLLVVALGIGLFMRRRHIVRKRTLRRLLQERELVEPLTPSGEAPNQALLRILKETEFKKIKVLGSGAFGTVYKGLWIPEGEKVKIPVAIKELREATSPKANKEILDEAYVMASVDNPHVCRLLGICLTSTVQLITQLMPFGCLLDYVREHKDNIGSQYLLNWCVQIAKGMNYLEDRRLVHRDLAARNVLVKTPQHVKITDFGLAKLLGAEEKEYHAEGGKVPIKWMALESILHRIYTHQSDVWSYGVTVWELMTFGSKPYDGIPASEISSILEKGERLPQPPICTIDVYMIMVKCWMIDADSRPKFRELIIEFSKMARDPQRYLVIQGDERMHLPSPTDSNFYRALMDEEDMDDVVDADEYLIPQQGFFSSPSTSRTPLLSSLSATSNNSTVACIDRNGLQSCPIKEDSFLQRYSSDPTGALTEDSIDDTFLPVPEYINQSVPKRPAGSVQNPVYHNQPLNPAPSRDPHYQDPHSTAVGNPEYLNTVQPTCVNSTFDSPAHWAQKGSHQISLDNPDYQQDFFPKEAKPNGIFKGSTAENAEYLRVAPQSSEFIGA
Sequence of EGFR wild type (EGFR WT) (P00533 25-1210): as above
Sequence of ErbB2 with Exon 20 YVMA insertion (HER2-YVMA) (P04626 other isoform, or with tags, fused parts or gaps ins YVMA behind 775): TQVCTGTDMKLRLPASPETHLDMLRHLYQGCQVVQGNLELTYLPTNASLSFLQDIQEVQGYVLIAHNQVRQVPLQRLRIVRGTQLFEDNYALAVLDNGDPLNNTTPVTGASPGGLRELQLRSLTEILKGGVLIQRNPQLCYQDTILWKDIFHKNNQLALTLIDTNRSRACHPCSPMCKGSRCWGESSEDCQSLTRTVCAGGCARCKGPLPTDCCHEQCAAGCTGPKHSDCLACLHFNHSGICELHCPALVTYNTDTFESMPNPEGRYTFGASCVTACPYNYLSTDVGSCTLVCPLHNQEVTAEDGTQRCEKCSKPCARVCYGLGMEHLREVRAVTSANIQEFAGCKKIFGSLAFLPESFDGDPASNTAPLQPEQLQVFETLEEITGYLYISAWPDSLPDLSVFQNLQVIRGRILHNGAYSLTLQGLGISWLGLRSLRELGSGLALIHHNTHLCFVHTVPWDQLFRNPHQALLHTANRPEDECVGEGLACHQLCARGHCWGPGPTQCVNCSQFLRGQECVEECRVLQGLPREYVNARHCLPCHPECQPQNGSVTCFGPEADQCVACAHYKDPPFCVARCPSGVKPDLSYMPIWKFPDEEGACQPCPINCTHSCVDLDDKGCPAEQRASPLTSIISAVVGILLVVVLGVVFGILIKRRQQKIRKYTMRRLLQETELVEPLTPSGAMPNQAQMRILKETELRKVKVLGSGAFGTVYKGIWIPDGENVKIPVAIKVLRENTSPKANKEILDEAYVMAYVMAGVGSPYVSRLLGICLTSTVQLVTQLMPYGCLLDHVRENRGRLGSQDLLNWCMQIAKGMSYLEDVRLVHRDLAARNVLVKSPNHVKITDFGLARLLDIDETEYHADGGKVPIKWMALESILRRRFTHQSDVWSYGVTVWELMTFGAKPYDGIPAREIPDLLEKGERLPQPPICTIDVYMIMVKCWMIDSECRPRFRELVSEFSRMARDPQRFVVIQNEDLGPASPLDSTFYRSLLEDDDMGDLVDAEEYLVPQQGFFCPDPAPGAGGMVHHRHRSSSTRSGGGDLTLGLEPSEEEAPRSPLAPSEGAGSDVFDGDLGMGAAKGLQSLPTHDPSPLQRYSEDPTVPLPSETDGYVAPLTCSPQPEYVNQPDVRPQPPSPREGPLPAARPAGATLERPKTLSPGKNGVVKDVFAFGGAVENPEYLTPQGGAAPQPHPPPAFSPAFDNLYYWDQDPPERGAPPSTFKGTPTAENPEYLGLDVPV

Row | SMILES | IC50 (ErbB2 WT; ErbB2 WT enzyme) | IC50 (EGFR; EGFR enzyme) | IC50 ([1]; ErbB2 YVMA phosphorylation) | IC50 (EGFR wild type (EGFR WT); [2]) | IC50 (ErbB2 WT; ErbB2 WT enzyme assay) | IC50 (EGFR; EGFR enzyme assay) | IC50 [1, 3] | IC50 (EGFR wild type (EGFR WT); [4])
1 | CC#CC(=O)N1CCC[C@@H](c2ccc3ncnc(Nc4ccc(Oc5ccn6ncnc6c5)c(C)c4F)c3n2)CC1 (single isomer, unassigned) [Example 212] | 66.2 nM | 3380 nM | 386 nM | ≥ 5000 nM |  |  |  | 
2 | C=CC(=O)N1CC[C@H]2C[C@@H](c3ccc4ncnc(Nc5ccc(Oc6ccc7c(c6)ncn7C)c(C)c5F)c4n3)C[C@H]21 (racemic) [Example 133, rac-1-((3aR,5R,6aR)-5-(4-((2-fluoro-3-methyl-4-((1-methyl-1H-benzo[d]imidazol-5-yl)oxy)phenyl)amino)pyrido[3,2-d]pyrimidin-6-yl)hexahydrocyclopenta[b]pyrrol-1(2H)-yl)prop-2-en-1-one] | 41.5 nM | 3170 nM | 34 nM | 3780 nM |  |  |  | 
3 | C=CC(=O)N1CC[C@H]2C[C@@H]1CN2c1ccc2ncnc(Nc3cc(Cl)c(Oc4ccn5ncnc5c4)cc3F)c2n1 [Example 439] |  |  |  |  | 148 nM | ≥ 10000 nM | 933 nM | ≥ 5000 nM
4 | CC#CC(=O)N1CCN(c2ccc3ncnc(Nc4ccc(Oc5ccn6ncnc6c5)c(Cl)c4F)c3n2)C[C@@H]1C(F)(F)F [Example 183, (R)-1-(4-(4-((4-([1,2,4]triazolo[1,5-a]pyridin-7-yloxy)-3-chloro-2-fluorophenyl)amino)pyrido[3,2-d]pyrimidin-6-yl)-2-(trifluoromethyl)piperazin-1-yl)but-2-yn-1-one] | 6.2 nM | 73.3 nM | 4.4 nM | 79.3 nM |  |  |  | 
5 | C=CC(=O)N1CC[C@H]2C[C@H](c3ccc4ncnc(Nc5ccc(Oc6ccn7ncnc7c6)c(C)c5F)c4n3)C[C@H]21 [Example 382] |  |  |  |  | 15 nM | 584 nM | 21 nM | 339 nM
6 | C=CC(=O)N1CCCC[C@H](c2ccc3ncnc(Nc4ccc(Oc5ccc6c(c5)ncn6C)c(C)c4)c3n2)C1 (single isomer, unassigned) [Example 172] | 5.2 nM | 720 nM | 13.9 nM | 1960 nM |  |  |  | 
7 | C=CC(=O)N1CCN(c2ccc3ncnc(Nc4ccc(Oc5ccn6ncnc6c5)c(C)c4F)c3n2)C[C@H]1C [Example 89, (R)-1-(4-(4-((4-([1,2,4]triazolo[1,5-a]pyridin-7-yloxy)-2-fluoro-3-methylphenyl)amino)pyrido[3,2-d]pyrimidin-6-yl)-2-methylpiperazin-1-yl)prop-2-en-1-one] | 76.5 nM | 3630 nM | 10.9 nM | 449 nM |  |  |  | 
8 | C=CC(=O)N1[C@@H]2CC[C@H]1[C@H](c1ccc3ncnc(Nc4cc(C)c(Oc5cnc6c(c5)ncn6C)cc4F)c3n1)C2 [Example 417] |  |  |  |  | 215 nM | ≥ 10000 nM | 51.6 nM | ≥ 5000 nM
9 | C=CC(=O)N1CC[C@H]2C[C@@H]1CN2c1ccc2ncnc(Nc3ccc(Oc4ccn5ncnc5c4)c(Cl)c3F)c2n1 [Example 436] |  |  |  |  | 36.3 nM | 1920 nM | 459 nM | ≥ 5000 nM
10 | C=CC(=O)N1CCN(c2ccc3ncnc(Nc4cc(Cl)c(Oc5ccn6ncnc6c5)cc4F)c3n2)C[C@H]1C(C)(C)C [Example 309] |  |  |  |  | 10000 nM | ≥ 10000 nM | 16.1 nM | ≥ 5000 nM
11 | C=C(C)C(=O)N1CCN(c2ccc3ncnc(Nc4ccc(Oc5ccn6ncnc6c5)c(C)c4F)c3n2)CC1(C)C [Example 341] |  |  |  |  | 113 nM | ≥ 10000 nM | 529 nM | ≥ 5000 nM
12 | C=CC(=O)N(C)[C@@H]1CCN(c2ccc3ncnc(Nc4ccc(Oc5ccn6ncnc6c5)c(C)c4F)c3n2)C1 [Example 349] |  |  |  |  | 29.3 nM | 2680 nM | 35.8 nM | ≥ 5000 nM
13 | C=CC(=O)N1CCC(Oc2ccc3ncnc(Nc4ccc(Oc5cnn6ccnc6c5)c(C)c4)c3n2)CC1 [Example 8, 1-(4-((4-((4-(imidazo[1,2-b]pyridazin-7-yloxy)-3-methylphenyl)amino)pyrido[3,2-d]pyrimidin-6-yl)oxy)piperidin-1-yl)prop-2-en-1-one] | 76.5 nM | 1350 nM | 47.3 nM | 799 nM |  |  |  | 
14 | C=CC(=O)N1CCC(Oc2ccc3ncnc(Nc4ccc(Oc5ccc6cn(C)nc6c5)c(F)c4)c3n2)CC1 [Example 12, 1-(4-((4-((3-fluoro-4-((2-methyl-2H-indazol-6-yl)oxy)phenyl)amino)pyrido[3,2-d]pyrimidin-6-yl)oxy)piperidin-1-yl)prop-2-en-1-one] | 1030 nM | ≥ 10000 nM | 193 nM | ≥ 5000 nM |  |  |  | 
15 | CC#CC(=O)N1CCC12CN(c1ccc3ncnc(Nc4cc(C)c(Oc5ccn6ncnc6c5)cc4F)c3n1)C2 [Example 188, 1-(6-(4-((4-([1,2,4]triazolo[1,5-a]pyridin-7-yloxy)-2-fluoro-5-methylphenyl)amino)pyrido[3,2-d]pyrimidin-6-yl)-1,6-diazaspiro[3.3]heptan-1-yl)but-2-yn-1-one] | 1450 nM | ≥ 10000 nM | 2020 nM | ≥ 5000 nM |  |  |  | 
16 | C=CC(=O)N1C[C@@H]2C[C@H]1CC[C@@H]2c1ccc2ncnc(Nc3cc(C)c(Oc4ccn5ncnc5c4)cc3F)c2n1 [Example 380] |  |  |  |  | 68.1 nM | 5680 nM | 125 nM | ≥ 5000 nM
17 | C=CC(=O)N1CCCC(c2ccc3ncnc(Nc4cc(C)c(Oc5ccn6ncnc6c5)cc4F)c3n2)C1 (stereo not shown) [Example 370] |  |  |  |  | 56 nM | 1990 nM | 47.3 nM | 3170 nM
18 | C=CC(=O)N1[C@H]2CC[C@@H]1[C@H](c1ccc3ncnc(Nc4ccc(Oc5ccn6ncnc6c5)c(C)c4F)c3n1)CC2 [Example 429] |  |  |  |  | 28.4 nM | 520 nM | 13.8 nM | 447 nM
19 | C=CC(=O)N1CCC12CN(c1ccc3ncnc(Nc4cc(Cl)c(Oc5ccn6ncnc6c5)cc4F)c3n1)C2 [Example 343] |  |  |  |  | 44.6 nM | 841 nM | 9.4 nM | 372 nM
20 | C=CC(=O)N1CC[C@H](c2ccc3ncnc(Nc4ccc(Oc5ccn6ncnc6c5)c(C)c4F)c3n2)CC12CC2 (single isomer, unassigned) [Example 174] | 23.8 nM | 736 nM | 7.9 nM | 270 nM |  |  |  | 
21 | C=CC(=O)N1CCN(c2ccc3ncnc(Nc4ccc(Oc5ccc6c(c5)ncn6C)c(C)c4F)c3n2)C[C@@H]1C1CC1 [Example 162, (S)-1-(2-cyclopropyl-4-(4-((2-fluoro-3-methyl-4-((1-methyl-1H-benzo[d]imidazol-5-yl)oxy)phenyl)amino)pyrido[3,2-d]pyrimidin-6-yl)piperazin-1-yl)prop-2-en-1-one] | 342 nM | ≥ 10000 nM | 25.7 nM | ≥ 5000 nM |  |  |  | 
22 | C=CC(=O)N1C[C@H]2C[C@@H]1[C@H](c1ccc3ncnc(Nc4ccc(Oc5ccn6ncnc6c5)c(Cl)c4F)c3n1)C2 [Example 231, 1-((1R,4R,6R)-6-(4-((4-([1,2,4]triazolo[1,5-a]pyridin-7-yloxy)-3-chloro-2-fluorophenyl)amino)pyrido[3,2-d]pyrimidin-6-yl)-2-azabicyclo[2.2.1]heptan-2-yl)prop-2-en-1-one] | 10 nM | 70.5 nM | 8.7 nM | 148 nM |  |  |  | 
